Measurements taken from publication PMC10143822, “Structural Adaptation of the Single-Stranded DNA-Binding Protein C-Terminal to DNA Metabolizing Partners Guides Inhibitor Design” (Pharmaceutics, 2023).
Like-named read-outs stand apart in the source and are kept apart here. Where a SMILES comes first, the peptide text is derived from it. Where no end group is shown, it is not given here. [ ]: non-standard residue; d: D form. Phe(3-Cl) = N[C@@H](Cc1cccc(Cl)c1)C(=O)O; Phe(4-Cl) = N[C@@H](Cc1ccc(Cl)cc1)C(=O)O; NMeI = CC[C@H](C)[C@H](NC)C(=O)O; 3Pal = N[C@@H](Cc1cccnc1)C(=O)O; Tic = O=C(O)[C@@H]1Cc2ccccc2CN1; 2Thi = N[C@@H](Cc1cccs1)C(=O)O; NMeD = CN[C@@H](CC(=O)O)C(=O)O; Tle = CC(C)(C)[C@H](N)C(=O)O; Aib = CC(C)(N)C(=O)O

Assays:
RecO = molecular target: T1, RecO (Escherichia coli, UniProt P0A7H3); experiment: biochemical; type: binding; details: 0.5 μM RecO, 50 nM F-wtSSB tracer
T1 construct: His-tag (TEV site) (N, cleaved yes); made in house; host or cells: E. coli Rosetta cells
Protocol: (§1) Triplicate measurements were performed using a Clariostar Plus Microplate Reader in 384-well plates for all fluorescence anisotropy (FA) experiments. The settings were 25 °C, excitation at 485 nm, emission at 510 nm, settling time of 0.2 s, and 200 flashes per well.
(§2) Competition fluorescence anisotropy experiments were carried out as follows: protein (0.5 μM either ExoI or RecO) was incubated with 50 nM F-wtSSB peptide and 0–500 μM unlabeled wtSSB (or a variant) peptide for 30 min at room temperature. For direct fluorescence anisotropy measurements, 16 µM ExoI and 7.5 µM RecO were used in the first well. After serial dilution, either 50 nM of F-mSSB or F-sSSB was added to the wells and then incubated for 30 min. Buffers used included 20 mM Tris-HCl (pH 8.0), 100 mM NaCl, 1 mM MgCl2, 1 mM 2-mercaptoethanol, 10% (v/v) glycerol, for ExoI and 20 mM Tris-HCl (pH 8.0), 200 mM NaCl, 1 mM 2-mercaptoethanol, 10% (v/v) glycerol, and 0.01% Triton-X 100 for RecO [37].
(§3) Fluorescence anisotropy values were normalized and are shown as bound fractions (BF, %). BF=r−rmin/λ(rmax−r)+r−rmin, I=2∗PG+S, r=S−PG/I, where r: anisotropy, I: total intensity, P: perpendicular intensity, S: parallel intensity, G: an instrument factor set to 1, BF: ligand fraction bound, and λ=λbound/λunbound=1 .
(§4) Competitive fluorescence anisotropy was analyzed in Origin Pro 9.5, and IC50 values were determined using the Logistic Nonlinear fit function and are shown as plots for each mutated position for each protein in Figures S4 and S6. EC50 values from direct fluorescence anisotropy titrations were plotted in Origin 9.5. Values were determined using the Logistics Nonlinear fit function.

ExoI = molecular target: T2, ExoI (Escherichia coli, UniProt P04995); experiment: biochemical; type: binding, E. coli
T2 construct: His-tag (cleaved yes); host or cells: E. coli BL21 (DE3) pLysS
Protocol: as §1, §2, §3, §4

[1] = 0–500 μM unlabeled peptide, 30 min room temperature, 20 mM Tris-HCl pH 8.0, 200 mM NaCl, 10% glycerol, 0.01% Triton-X 100, 25 °C, triplicate, read-out: IC50 on RecO, competitive fluorescence anisotropy

T1 sequence (P0A7H3 whole entry): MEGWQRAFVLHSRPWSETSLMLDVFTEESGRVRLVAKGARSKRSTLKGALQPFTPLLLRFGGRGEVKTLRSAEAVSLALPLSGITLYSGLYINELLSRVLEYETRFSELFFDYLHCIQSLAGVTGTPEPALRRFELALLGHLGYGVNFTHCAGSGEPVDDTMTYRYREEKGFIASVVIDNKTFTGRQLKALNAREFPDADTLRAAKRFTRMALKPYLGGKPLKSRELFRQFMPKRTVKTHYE

Compound: Ac-DFNDDIPF [Asn3]
- IC50 (RecO; [1]): 0.0142 ± 0.0018 mM
- IC50 (ExoI): 6.36 ± 0.36 µM

Compound: Ac-NFDDDIPF [Asn1]
- IC50 (RecO; [1]): 0.0138 ± 0.0172 mM
- IC50 (ExoI): 9.31 ± 0.4 µM

Compound: CC[C@H](C)[C@H](NC(=O)[C@H](CC(=O)O)NC(=O)[C@H](CC(=O)O)NC(=O)[C@H](CC(=O)O)NC(=O)[C@H](Cc1cccs1)NC(=O)[C@H](CC(=O)O)NC(C)=O)C(=O)N1CCC[C@H]1C(=O)N[C@@H](Cc1ccccc1)C(=O)O [Thi2] (Ac-D[2Thi]DDDIPF-OH)
- IC50 (RecO; [1]): 0.00527 ± 0.00028 mM
- IC50 (ExoI): 4.22 ± 0.81 µM

Compound: CC(=O)N[C@@H](CC(=O)O)C(=O)N[C@@H](Cc1ccccc1)C(=O)N[C@@H](CC(=O)O)C(=O)N[C@@H](CC(=O)O)C(N)=O [DFDD] (Ac-DFDD-NH2)
- IC50 (RecO; bound given in mM, read-out: IC50 on RecO, competitive fluorescence anisotropy (no direct inhibitory effect detected)): > 3 mM
- IC50 (ExoI): 312 ± 16.7 µM

Compound: CC[C@H](C)[C@H](NC(=O)[C@H](CC(=O)O)NC(=O)[C@H](CC(=O)O)NC(=O)[C@H](CC(=O)O)NC(=O)[C@@H](Cc1ccccc1)NC(=O)[C@H](CC(=O)O)NC(C)=O)C(=O)N1CCC[C@H]1C(=O)N[C@@H](Cc1ccccc1)C(=O)O [D-Phe2] (Ac-D[dF]DDDIPF-OH)
- IC50 (RecO; [1]): 0.00275 ± 0.00059 mM
- IC50 (ExoI): 3.49 ± 2.41 µM

Compound: CC[C@H](C)[C@H](NC(=O)[C@H](CC(=O)O)NC(=O)[C@H](CC(=O)O)NC(=O)[C@H](CC(=O)O)NC(=O)[C@@H]1Cc2ccccc2CN1C(=O)[C@H](CC(=O)O)NC(C)=O)C(=O)N1CCC[C@H]1C(=O)N[C@@H](Cc1ccccc1)C(=O)O [Tic2] (Ac-D[Tic]DDDIPF-OH)
- IC50 (RecO; [1]): 0.00399 ± 0.0001 mM
- IC50 (ExoI): 6.6 ± 0.55 µM

Compound: Ac-DFEDDIPF [Glu3]
- IC50 (RecO; [1]): 0.00581 ± 0.00165 mM
- IC50 (ExoI): 4.03 ± 0.24 µM

Compound: CC(=O)N[C@@H](CC(=O)O)C(=O)N[C@@H](Cc1ccccc1)C(=O)N[C@@H](CC(=O)O)C(=O)N[C@@H](CC(=O)O)C(=O)N[C@@H](CC(=O)O)C(=O)N[C@H](C(=O)N1CCC[C@H]1C(=O)N[C@@H](Cc1ccccc1)C(=O)O)C(C)(C)C [tBuGly6] (Ac-DFDDD[Tle]PF-OH)
- IC50 (RecO; [1]): 0.0104 ± 0.00102 mM
- IC50 (ExoI): 2.87 ± 0.26 µM

Compound: CC[C@H](C)[C@H](NC(=O)[C@H](CC(=O)O)NC(=O)[C@H](CC(=O)O)NC(=O)[C@H](CC(=O)O)NC(=O)[C@H](Cc1ccccc1)NC(=O)[C@H](CC(=O)O)NC(C)=O)C(=O)N1CCC[C@H]1C(=O)N[C@@H](Cc1ccc(Cl)cc1)C(=O)O [4-Cl-Phe8] (Ac-DFDDDIP[Phe(4-Cl)]-OH)
- IC50 (RecO; [1]): 0.00362 ± 0.00084 mM
- IC50 (ExoI): 1.41 ± 0.18 µM

Compound: CC[C@H](C)[C@H](NC(=O)[C@H](CC(=O)O)NC(=O)[C@H](CC(=O)O)NC(=O)[C@H](CC(=O)O)NC(=O)[C@H](Cc1ccccc1)NC(=O)[C@H](CC(=O)O)NC(C)=O)C(=O)N1CCC[C@@H]1C(=O)N[C@@H](Cc1ccccc1)C(=O)O [D-Pro7] (Ac-DFDDDI[dP]F-OH)
- IC50 (RecO; [1]): 0.0116 ± 0.0109 mM
- IC50 (ExoI): 61.5 ± 16.2 µM

Compound: CC[C@H](C)[C@H](NC(=O)[C@H](CC(=O)O)NC(=O)[C@H](CC(=O)O)NC(=O)[C@H](CC(=O)O)NC(=O)[C@H](Cc1ccccc1)NC(=O)[C@H](CC(=O)O)NC(C)=O)C(=O)N1CCC[C@H]1C(=O)N[C@@H](Cc1cccnc1)C(=O)O [3Pal8] (Ac-DFDDDIP[3Pal]-OH)
- IC50 (RecO; [1]): 0.0319 ± 0.00416 mM
- IC50 (ExoI): 19.9 ± 2.81 µM

Compound: CC(=O)N[C@@H](CC(=O)O)C(=O)N[C@@H](Cc1ccc(Cl)cc1)C(=O)N(C)[C@@H](CC(=O)O)C(=O)N[C@@H](CC(=O)O)C(=O)N[C@@H](CCC(=O)O)C(=O)N[C@@H](CC(C)C)C(=O)N1CCC[C@H]1C(=O)N[C@@H](Cc1cccc(Cl)c1)C(=O)O [R1-sSSB-Ct] (Ac-D[Phe(4-Cl)][NMeD]DELP[Phe(3-Cl)]-OH)
- IC50 (RecO; [1]): 0.00333 mM

Compound: CC(=O)N[C@@H](CC(=O)O)C(=O)N[C@@H](Cc1ccccc1)C(=O)N[C@@H](CC(=O)O)C(=O)N[C@@H](CC(=O)O)C(=O)N[C@@H](CC(=O)O)C(=O)NC(C)(C)C(=O)N1CCC[C@H]1C(=O)N[C@@H](Cc1ccccc1)C(=O)O [Aib6] (Ac-DFDDD[Aib]PF-OH)
- IC50 (ExoI): 27.6 ± 7.9 µM

Compound: CC[C@H](C)[C@@H](C(=O)N1CCC[C@H]1C(=O)N[C@@H](Cc1ccccc1)C(=O)O)N(C)C(=O)[C@H](CC(=O)O)NC(=O)[C@H](CC(=O)O)NC(=O)[C@H](CC(=O)O)NC(=O)[C@H](Cc1ccccc1)NC(=O)[C@H](CC(=O)O)NC(C)=O [NM-Ile6] (Ac-DFDDD[NMeI]PF-OH)
- IC50 (ExoI): 3.95 ± 0.54 µM
